From patent publication US20190125753A1, “COMPOUNDS AND METHODS FOR INCREASING HEMATOPOIESIS” (University of Southern California, priority 2016, published 2019)

Assays:
[1] = system: H9 human embryonic stem cells; experiment: Maintenance of human ES cell pluripotency, 5 days; format: cell-based; settings: 25 ng/ml Wnt3a; 500 nM YH249 or 200 nM YH250, 5 days, without FGF and TGF
Protocol: We also determined that IQ-1 indirectly, via binding to the PR72/130 subunit of PP2A, inhibited the p300/β-catenin interaction (Id). Therefore, we anticipated that YH249/250 should also maintain mESC pluripotency in a Wnt dependent manner. To test his, R1 mESCs were cultured under feeder free conditions in the presence or absence of YH249/250 for 5 days. […] Pluripotency markers, Oct4, Nanog, Sox2, SSEA-1 and ALP, were all expressed in the cells treated with Wnt3a and YH250 (FIG. 28b). Moreover, Wnt3a could be replaced with the selective GSK-3 inhibitor CHIR99021, which activates the Wnt signaling pathway (FIG. 28a, lower panel). […] In the event, similarly to ID-8, the combination of Wnt3a and YH249/250 provided morphologically undifferentiated colonies of H9 human embryonic stem cells (hESCs) without FGF and TGF (FIG. 28c). hPSC markers were detected by ALP staining and immunofluorescence (FIG. 28d). In addition to H9 cells, two other hESC lines and a human induced pluripotent stem (iPS) cell line could be also maintained undifferentiated morphology utilizing the same conditions (not shown).
Specifically, FIG. 28A-28D, show maintenance of ESC's pluripotency by YH249 and YH250. […] 28A, Typical colony morphologies of RI mouse ES cells cultured 5 days in [upper panel] […]

[2] = system: LSK150+41−48− cells (LTR-HSC); experiment: RNA sequencing of long-term repopulating HSC from treated mice; format: in vivo, mouse; settings: 2 mg/kg vs DMSO, 16 hours
Protocol: DMSO or YH250 (2 mg/kg) were administrated to female C57/Black mice.

bone marrow cells = experiment: Radiation induced apoptosis, cleaved PARP FACS; format: in vivo; settings: administered 18 hours before 5Gy radiation; 6 hours after radiation
Protocol: Since p300/-catenin antagonists such as YH250 up-regulate survivin gene expression, YH250 was tested for the ability to attenuate radiation induced cell apoptosis by detecting cleaved PARP (Poly ADP ribose polymerase-1) using anti-PARP antibody and FACS analysis (BD Bioscience, Cat#562253, anti-PARP clone F21-852). DMSO or YH250 were administrated 18 hours before 5Gy radiation. 6 hours after radiation, bone marrow cells were isolated and stained for cell surface markers (lineage markers, Sca-1, c-kit) and anti-PARP (FIG. 23A).

[3] = system: bone marrow stem/progenitor cells; experiment: HSPC proliferation in 5-FU treated animals; format: in vivo, mouse; settings: 5-FU 150 mg/kg, YH250 2 mg/kg 24 hours later, analysed one day later
Protocol: p300/-catenin antagonists, such as YH250, were also tested for the ability to stimulate bone marrow stem/progenitor cell proliferation in chemotherapeutic drug-treated (e.g., 5-FU) animals. As depicted in FIG. 24A, animals were given PBS or 5-FU (150 mg/kg). 24 hours later, either DMSO or YH250 (2 mg/kg) were administrated to animals. Then, bone marrow cells were isolated one day later for FACS analysis.

Human survivin promoter = experiment: Survivin/luciferase reporter (Survivin-Hek-293); format: cell-based; settings: Homo sapiens; Survivin-Hek-293, 24 hours; read-out: survivin/luciferase reporter: did not inhibit up to
Protocol: Hek293 cells were stably transfected with plasmid that contains multiple TCF/LEF fragments in front of Luciferase gene. Wnt/β-catenin activity was determined from luciferase expression levels. […] Briefly, stably transfected Hek-293, STFI.1 (Wnt/β-catenin-driven luciferase) and Survivin-Hek-293 (1 Kb Human survivin promoter-driven luciferase) cells were maintained in DMEM, 10% FBS, Pen/Strep with 400 μg/mL G418 or 2 μg/mL puromycin, respectively. To check the activity of ICG-001, YH249, and YH250, the cells were split into white-opaque 96-well plates at 10,000 cells per well and allowed to attach overnight. For SuperTOPLASH, the inhibitors were added to the cells and pre-incubated for 1 hour prior to stimulation with 10 mM Li Cl for 24 hours. Luciferase activity was read using BrightGlo (Promnega) luciferase substrate. For survivin/luc, the inhibitors were added to the cells and incubated for 24 hours prior to readout. To calculate IC5o values, the resulting curve was fitted to a four-parameter logistic model (4PL) using GraphPad Prism 5 software.
B. Survivin Expression Level: The Secondary Screen.
An endogenous human survivin 1 kb promoter was inserted before a luciferase gene. […] R1 and R2 were diversified in this study. Percent inhibition of luciferase activity was calculated according to the following equations; % inhibition of STF 1.1 reporter activity=(I−RLU(10 mM LiCl) treated/RLU(10 omM LiCl) vehicle×control)100, % inhibition of Survivin reporter activity=(1−RLUtreated/RLU vehicle control)×100. Error bars indicate the mean±SE of 3 separate experiments. Selectivity (FIG. 2H) was calculated by IC50 value for Survivin-Hek-293/IC50 value for STF 1.1.

In the case of `COc1cccc(CNC(=O)N2C3CN(Cc4cc(Cl)cc(Cl)c4N(C)C)C(=O)[C@H](Cc4ccc(O)cc4)N3C(=O)CN2C)c1OC` (stereo partly drawn) [YH250], the hESC pluripotency [1] is reported as “maintain pluripotency”, the “Fold-Change A430005L14Rik” value [2] is reported as 2.07 fold and the “Fold-Change Car1” value [2] is reported as 46.29 fold. The “Fold-Change Casp6” value [2] was 2.56 fold, the “Fold-Change Cd52” value [2] was 3.09 fold and the “Fold-Change Cd53” value [2] was 2.79 fold. For the same molecule, the “Fold-Change Cd69” value [2] was 2.44 fold, the “Fold-Change Cd74” value [2] was 2.30 fold and the “Fold-Change Cd79a” value [2] was 5.49 fold. For the same molecule, the “Fold-Change Cdc123” value [2] was 2.13 fold, the “Fold-Change Dtx3” value [2] was −2.12 fold and the “Fold-Change Gm21897” value [2] was −2.18 fold. The “Fold-Change Gm26377 (miRNA)” value [2] was −58.02 fold, the “Fold-Change Ighm” value [2] was 6.14 fold and the “Fold-Change Ighv11-2” value [2] was 8.18 fold. The “Fold-Change Igj” value [2] was 3.36 fold, the “Fold-Change Igkc” value [2] was 3.93 fold and the “Fold-Change Igkv14-126” value [2] was 8.00 fold. For the same molecule, the “Fold-Change Igkv19-93” value [2] was 21.16 fold, the “Fold-Change Iglc2” value [2] was 4.58 fold and the “Fold-Change Il2rg” value [2] was 2.03 fold. The “Fold-Change Kcnq1ot1 (antisense)” value [2] was −2.37 fold, the “Fold-Change Ldlr” value [2] was −3.57 fold and the “Fold-Change Ly6c2” value [2] was 7.17 fold. For the same molecule, the “Fold-Change Mid1” value [2] was −3.98 fold, the “Fold-Change Mrpl30” value [2] was 2.07 fold and the “Fold-Change Ndufaf7” value [2] was 3.45 fold. For the same molecule, the “Fold-Change Pias1” value [2] was 2.02 fold, the “Fold-Change Psmf1” value [2] was 2.48 fold and the “Fold-Change RP23-99K18.3 (lincRNA)” value [2] was −2.28 fold. The “Fold-Change Tgtp1” value [2] was 2.85 fold, the “Fold-Change Tmed4” value [2] was 2.06 fold and the “apoptosis (cleaved PARP) in LSK, lineage-negt and lineage-posit population” value (bone marrow cells) was “significantly less apoptosis”. For the same molecule, the “Lin-CD48-CD150+ cell numbers vs DMSO” value [3] was “significantly higher”, the “lineage negative cell numbers vs DMSO” value [3] was “significantly higher” and the IC50 (Human survivin promoter) was greater than 20 µM.
